Where “and” joins values, the source holds several entries; their conditions need not be identical. Identical values can stand only once. Toxic doses and inconclusive results are not listed. The calls were made as follows: active = survival T/C of 150% or more; inactive = T/C below 125% in these data.
Tested on: P388 leukemia ip, CD2F1 mice, survival T/C
Test: NCI In Vivo Anticancer Drug Screen. Data for tumor model P388 Leukemia (intraperitoneal) in CD2F1 (CDF1) mice
Conditions: endpoint: median survival time, higher = longer survival
Outline: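 Mice carrying the transplanted tumor received test compound or vehicle. Survival was recorded in each group, and the value is the treated-group measurement divided by that of the vehicle-treated control group.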

[1] = dose: 50.0 mg/kg/injection, schedule: Q01DX005 (ip), vehicle: Klucel (hydroxypropylcellulose) (HPC)
[2] = dose: 50.0 mg/kg/injection, schedule: Q01DX009 (ip), vehicle: saline with Tween-80
[3] = dose: 100.0 mg/kg/injection, schedule: Q01DX009 (ip), vehicle: saline with Tween-80
[4] = dose: 200.0 mg/kg/injection, schedule: Q01DX009 (ip), vehicle: saline with Tween-80
[5] = dose: 50.0 mg/kg/injection, schedule: Q01DX005 (ip), vehicle: saline with Tween-80
[6] = dose: 100.0 mg/kg/injection, schedule: Q01DX005 (ip), vehicle: saline with Tween-80
[7] = dose: 200.0 mg/kg/injection, schedule: Q01DX005 (ip), vehicle: saline with Tween-80
[8] = dose: 50.0 mg/kg/injection, schedule: Q01DX009 (ip), vehicle: Klucel (hydroxypropylcellulose) (HPC)
[9] = dose: 100.0 mg/kg/injection, schedule: Q01DX009 (ip), vehicle: Klucel (hydroxypropylcellulose) (HPC)
[10] = dose: 200.0 mg/kg/injection, schedule: Q01DX009 (ip), vehicle: Klucel (hydroxypropylcellulose) (HPC)
[11] = dose: 12.5 mg/kg/injection, schedule: Q01DX009 (ip), vehicle: saline
[12] = dose: 25.0 mg/kg/injection, schedule: Q01DX009 (ip), vehicle: saline
[13] = dose: 50.0 mg/kg/injection, schedule: Q01DX009 (ip), vehicle: saline
[14] = dose: 50.0 mg/kg/injection, schedule: Q01DX009 (ip), vehicle: suspension in saline
[15] = dose: 100.0 mg/kg/injection, schedule: Q01DX009 (ip), vehicle: suspension in saline
[16] = dose: 60.0 mg/kg/injection, schedule: Q01DX005 (ip), vehicle: saline with Tween-80
[17] = dose: 120.0 mg/kg/injection, schedule: Q01DX005 (ip), vehicle: saline with Tween-80
[18] = dose: 240.0 mg/kg/injection, schedule: Q01DX005 (ip), vehicle: saline with Tween-80

Measured: T/C

COc1ccc(C2(c3ccccc3)c3ccccc3C(=O)c3ccccc32)cc1
inactive: [1] 101 % of control | dose: 100.0 mg/kg/injection, schedule: Q01DX005 (ip), vehicle: Klucel (hydroxypropylcellulose) (HPC) 103 % of control | dose: 200.0 mg/kg/injection, schedule: Q01DX005 (ip), vehicle: Klucel (hydroxypropylcellulose) (HPC) 99 % of control

COc1ccc(Br)cc1/C=C/[N+](=O)[O-]
inactive: dose: 12.5 mg/kg/injection, schedule: Q01DX009 (ip), vehicle: saline with Tween-80 113 % of control | dose: 25.0 mg/kg/injection, schedule: Q01DX009 (ip), vehicle: saline with Tween-80 122 % of control

O=S(=O)(O)C(Nc1ccc(Cl)cc1)c1ccccc1 (centres undefined)
inactive: [2] 100 % of control | [3] 105 % of control | [4] 114 % of control

COc1ccccc1C1=NC(C)(C)CO1
inactive: [5] 99 % of control | [6] 94 % of control | [7] 91 % of control

CCCCP(=O)(CCCC)CCCC.CCCCP(=O)(CCCC)CCCC.CCCCP(=O)(CCCC)CCCC.CCCCP(=O)(CCCC)CCCC.[Ce+3].[O-][Cl+3]([O-])([O-])O
inactive: [2] 97 % of control | [3] 92 % of control | [4] 86 % of control

CC1(Oc2ccccc2)OC(=O)c2ccccc2O1 (centres undefined)
inactive: [5] 96 % of control | [6] 104 % of control | [7] 95 % of control

Cn1c2ccccc2c(=O)c2ccc(Cl)cc21
inactive: dose: 25.0 mg/kg/injection, schedule: Q01DX009 (ip), vehicle: Klucel (hydroxypropylcellulose) (HPC) 117 % of control | [8] 111 % of control | [9] 114 % of control | [10] 88 % of control | dose: 400.0 mg/kg/injection, schedule: Q01DX009 (ip), vehicle: Klucel (hydroxypropylcellulose) (HPC) 104 % of control

Cc1ccc(NSC(Cl)(Cl)Cl)cc1
inactive: [11] 100 % of control | dose: 12.5 mg/kg/injection, schedule: Q01DX009 (ip), vehicle: suspension in saline 100 % of control | [12] 100 % of control | dose: 25.0 mg/kg/injection, schedule: Q01DX009 (ip), vehicle: suspension in saline 100 % of control | [13] 104 % of control and 123 % of control | [14] 97 % of control | [15] 87 % of control

C(Oc1nc(OCC2CO2)nc(OCC2CO2)n1)C1CO1 (centres undefined)
inactive: [11] 108 % of control | [12] 105 % of control | [13] 101 % of control and 108 % of control

O=C(O)C1=C(O)CCN=C1
inactive: dose: 12.5 mg/kg/injection, schedule: Q01DX005 (ip), vehicle: Klucel (hydroxypropylcellulose) (HPC) 99 % of control | dose: 25.0 mg/kg/injection, schedule: Q01DX005 (ip), vehicle: Klucel (hydroxypropylcellulose) (HPC) 99 % of control | [1] 105 % of control

Cc1nnc(NC(=O)c2cc(=O)c3ccccc3o2)s1
inactive: dose: 100.0 mg/kg/injection, schedule: Q04DX002 (ip), vehicle: saline with Tween-80 99 % of control | dose: 200.0 mg/kg/injection, schedule: Q04DX002 (ip), vehicle: saline with Tween-80 94 % of control | dose: 400.0 mg/kg/injection, schedule: Q04DX002 (ip), vehicle: saline with Tween-80 93 % of control

C[CH2][Pb]([CH2]C)([CH2]C)[O]C(=O)c1ccc2ccccc2n1
inactive: dose: 0.25 mg/kg/injection, schedule: Q01DX009 (ip), vehicle: saline with Tween-80 100 % of control | dose: 0.5 mg/kg/injection, schedule: Q01DX009 (ip), vehicle: saline with Tween-80 103 % of control | dose: 1.0 mg/kg/injection, schedule: Q01DX009 (ip), vehicle: saline with Tween-80 99 % of control | dose: 2.0 mg/kg/injection, schedule: Q01DX009 (ip), vehicle: saline with Tween-80 94 % of control | dose: 4.0 mg/kg/injection, schedule: Q01DX009 (ip), vehicle: saline with Tween-80 112 % of control | dose: 8.0 mg/kg/injection, schedule: Q01DX009 (ip), vehicle: saline with Tween-80 90 % of control

CCC(=N\NC(=S)NCCN(CC)CC)/C(C)=N/NC(=S)NCCN(CC)CC
inactive: dose: 1.56 mg/kg/injection, schedule: Q01DX009 (ip), vehicle: saline 94 % of control | dose: 3.13 mg/kg/injection, schedule: Q01DX009 (ip), vehicle: saline 118 % of control | dose: 6.25 mg/kg/injection, schedule: Q01DX009 (ip), vehicle: saline 106 % of control | [11] 101 % of control

C/C=C1/CN2C3CC1C1(C(=O)OC)C(OC(C)=O)[C@]4(C[C@H]21)c1cc(OC)ccc1N(C)C34 (some centres undefined)
inactive: dose: 3.5 mg/kg/injection, schedule: Q01DX005 (ip), vehicle: Klucel (hydroxypropylcellulose) (HPC) 115 % of control | dose: 7.0 mg/kg/injection, schedule: Q01DX005 (ip), vehicle: Klucel (hydroxypropylcellulose) (HPC) 108 % of control | dose: 14.0 mg/kg/injection, schedule: Q01DX005 (ip), vehicle: Klucel (hydroxypropylcellulose) (HPC) 94 % of control | dose: 28.0 mg/kg/injection, schedule: Q01DX005 (ip), vehicle: Klucel (hydroxypropylcellulose) (HPC) 100 % of control

COc1cc2c(cc1O)c[n+](C)c1c3cc(OC)c(OC)cc3ccc21
inactive: dose: 7.8 mg/kg/injection, schedule: Q01DX009 (ip), vehicle: other 107 % of control | dose: 31.3 mg/kg/injection, schedule: Q01DX009 (ip), vehicle: other 122 % of control | dose: 62.5 mg/kg/injection, schedule: Q01DX009 (ip), vehicle: other 120 % of control | dose: 125.0 mg/kg/injection, schedule: Q01DX009 (ip), vehicle: other 120 % of control

O=[N+]([O-])c1ccc(/C=C/Oc2ccccc2)o1
inactive: [14] 111 % of control | [15] 110 % of control | dose: 200.0 mg/kg/injection, schedule: Q01DX009 (ip), vehicle: suspension in saline 111 % of control

Cc1nc2c(N)nn(C)c2nc1C
inactive: [2] 105 % of control | [3] 110 % of control | [4] 110 % of control

C=CCC1(C)C(=O)CCC1=O
inactive: [16] 110 % of control | [17] 102 % of control | [18] 98 % of control

CCOC(=O)/C(=C/C(C#N)=C/N(C)C)CC
inactive: dose: 50.0 mg/kg/injection, schedule: Q04DX003 (ip), vehicle: saline with Tween-80 104 % of control | dose: 100.0 mg/kg/injection, schedule: Q04DX003 (ip), vehicle: saline with Tween-80 95 % of control | dose: 200.0 mg/kg/injection, schedule: Q04DX003 (ip), vehicle: saline with Tween-80 109 % of control

CCN(CC)CCN(Cc1ccccc1)C(=O)C1c2ccccc2Oc2ccccc21
inactive: [5] 102 % of control | [6] 105 % of control

CN(C#N)CCc1ccccc1
inactive: [2] 100 % of control | [3] 96 % of control

CN=C(N)N/N=C/c1c2ccccc2c(Cl)c2ccccc12
inactive: dose: 25.0 mg/kg/injection, schedule: Q04DX002 (ip), vehicle: saline with Tween-80 114 % of control

COC1(C)CC(c2ccccc2)=NO1 (centres undefined)
inactive: [16] 96 % of control | [17] 103 % of control | [18] 96 % of control

COc1ccc(C23OCN(c4ccccc4)C2(c2ccc(OC)cc2)c2ccccc2N3C)cc1 (centres undefined)
inactive: [16] 103 % of control | [17] 100 % of control | [18] 94 % of control

Fc1cccc(NC(=S)SCc2ccc(Cl)cc2)c1
inactive: [12] 102 % of control | [13] 105 % of control | dose: 100.0 mg/kg/injection, schedule: Q01DX009 (ip), vehicle: saline 105 % of control | [15] 103 % of control

CCCCCc1nnc2n1N=C(c1ccc(Cl)cc1)CS2
inactive: [16] 100 % of control | [17] 92 % of control | [18] 91 % of control

O=C1C(CO)=C[C@H](O)[C@@]2(CO)O[C@@H]12
inactive: dose: 6.25 mg/kg/injection, schedule: Q04DX002 (ip), vehicle: saline 100 % of control | dose: 12.5 mg/kg/injection, schedule: Q04DX002 (ip), vehicle: saline 107 % of control | dose: 25.0 mg/kg/injection, schedule: Q04DX002 (ip), vehicle: saline 107 % of control | dose: 50.0 mg/kg/injection, schedule: Q04DX002 (ip), vehicle: saline 100 % of control | dose: 100.0 mg/kg/injection, schedule: Q04DX002 (ip), vehicle: saline 121 % of control

COc1ccc([N+](=O)[O-])cc1NC(=O)C1C(=O)C(=O)N(c2cc([N+](=O)[O-])ccc2OC)C1=O (centres undefined)
inactive: [8] 100 % of control | [9] 100 % of control | [10] 115 % of control

From PubChem BioAssay AID330 (DTP/NCI, 2004)
